Measurements: US20220332758A1, “PEPTIDE-BASED COMPOSITIONS AND METHODS FOR TREATING ALZHEIMER'S DISEASE” (Board of Regents, The Universityof Texas System, priority 2019, published 2022)

What was measured:
[1] = target: T1, latent human 20S proteasome (Homo sapiens, UniProt P25787+P60900); assay: Chymotrypsin-like (ChT-L) activity of purified latent human 20S proteasome, Suc-LLVY-AMC substrate; format: biochemical
T1 construct: purified from erythrocytes; purchased Boston Biochem, Inc. or Enzo Life Sciences, Inc; host or cells: human erythrocytes
Method: Determination of Proteasome Activity. Human housekeeping core (20S) proteasome purified from erythrocytes was purchased from Boston Biochem, Inc. (Cambridge, Mass.) or from Enzo Life Sciences, Inc. (Farmingdale, N.Y.). […] The stock proteasome was diluted to 0.2 mg/mL working solution in “dilution buffer” (50 mM Tris/HCl, pH 8, 20% glycerol). The following model peptide substrates, releasing fluorescent 7-amino-4-methylcoumarin (AMC) reporter group after cleavage, were used: succinyl-LeuLeuValTyr-AMC (SEQ ID NO: 14) (for the ChT-L peptidase; SucLLVY-AMC; Bachem Bioscience Inc., Philadelphia, Pa.), butoxycarbonyl-LeuArgArg-AMC (T-L; Bachem Bioscience Inc., Philadelphia, Pa.) and carbobenzoxy-LeuLeuGlu-AMC (PGPH; Enzo Life Sciences Inc., Farmingdale, N.Y.). The substrates were used at concentration of 50 μM (ChT-L) or 100 μM (T-L, PGPH). Free AMC (Sigma-Aldrich, St. Louis, Mo.) was used as the standard. […] The TAT peptides, Rpt peptides (except Rpt6) and the peptide substrates were dissolved in anhydrous dimethylsulfoxide (DMSO; Sigma-Aldrich, St. Louis, Mo.) and such stock solutions were stored at −20° C. The total concentration of DMSO in final reaction mixtures never exceeded 3% (vol/vol). The Trp (tryptophan)-containing Rpt6 peptide was dissolved in ultrapure water and stored at −20° C., protected from light. The reaction was carried out in 96-well plates, in 100 μL of reaction mixture that consisted of 45 mM Tris/HCl, pH 8, 100 mM KCl, 1 mM EDTA (reaction buffer) and a fluorogenic peptide substrate, to which 200 ng (nearly […]) of proteasome were added. […] The proteasome was preincubated with a substrate for 10 min at room temperature, then 1 μL of DMSO or a desired concentration of a TAT peptide in 1 μL of DMSO were added. After mixing, the plate was transferred to a Fluoroskan Ascent plate reader (Thermo Fisher Scientific Inc., Waltham, Mass.) for 1 h (37° C.), with fluorescence readouts once per minute. To test the competition with Rpt derived peptides, the Rpt peptide (1 μM) was added before the TAT peptide to the reaction mixture. The reaction rates were calculated from a linear segment of kinetic curves constructed from measurements in 1-min intervals. Reaction rates were calculated using a linear fit performed with the Slope Analyser and Enzyme Kinetics applications launched within Origin Pro 2019 (OriginLab Corporation, Northampton, Mass.). […] The data are presented as mean±SD from at least three independent experiments.
Statistical Analysis. Experiments were performed at least in three independent replicates. The results are presented as a mean±SD. A two-tailed t-test was applied to compare the means. The comparisons were allowing for unequal variances with a Welch correction. Abundance of proteasome conformers was compared with the chi squared test and two-sample proportion test. A significance level was set at 0.05. Statistical analysis was performed using statistical procedures offered by OriginPro 2019 (OriginLabs, Northampton, Mass.). Reaction rates were calculated from a smoothed linear segment of kinetic traces using OriginPro 2019. Response curves (activity vs. compound concentration) were fitted with a nonlinear fitting application of OriginPro 2019. The AC50 and maximum activation fold was calculated based on the equations implemented to fit the response curves.

[2] = target: proteasome in SK-N-SH cell lysates (Homo sapiens, UniProt P28074); assay: ChT-L activity of SK-N-SH cell lysates exposed to Bortezomib; format: biochemical; conditions: 1 μM
Method: (§1) Cell Culture. Human SK-N-SH neuroblastoma cell line (ATCC® HTB-11™ American Type Culture Collection; Manassas, Va.) were cultured according to ATCC specifications (EMEM, 10% heat-inactivated FBS) The cells at passage 2-4 were treated with 1 μM TAT peptides or the DMSO vehicle diluted with the medium 1: 1000, for 24 h. The content of live cells was determined by the Trypan Blue-exclusion assay. The cells were harvested, washed twice in PBS, resuspended in dilution buffer (as described herein) and stored in −80° C. To prepare lysates, the thawed preparations were vortexed with glass beads and centrifuged for 5 min 5,000×g (4° C.). The supernatant was centrifuged for 20 min 14,000×g (4° C.). The resulting supernatant—“crude lysate” was diluted to 1 mg/mL of total protein with dilution buffer. 1 μg of lysate per assay (reaction buffer: 50 mM Tris/HCl pH 8, 0.1 mM MgCl2, 0.2 mM ATP, 0.1 mM dithiothreitol, 50 μM Suc-LLVY-AMC (SEQ ID NO: 14)) was used for determination of ChT-L activity in a 96-well format, as above.

[3] = target: T2, proteasome ChT-L activity in SK-N-SH (ATCC HTB-11) cells (Homo sapiens, UniProt P25787+P60900); assay: ChT-L proteasome activity in lysates of SK-N-SH cells treated with TAT peptides; format: cell-based; conditions: 1 μM, 24 h
T2 construct: host or cells: SK-N-SH human neuroblastoma cells
Method: as §1

[4] = target: T3, α face pockets of the 20S core proteasome (Homo sapiens, UniProt P25787+P60900); assay: Competition of TAT peptides with Rpt C-terminal tail peptides for α face pockets (ChT-L activity of 20S); format: biochemical
T3 construct: purified from erythrocytes; purchased Boston Biochem, Inc. or Enzo Life Sciences, Inc; host or cells: human erythrocytes
Description: As mentioned herein, the binding pockets on the α face accept “anchors” from natural protein ligands of the 20S core. […] The 10-residue Rpt-derived C-terminal “tail” peptides (“Rpt peptides”) can be used as competitors with the Rpt subunits or with small allosteric ligands. Importantly, the Rpt peptides interject between the subunits with their C-termini, whereas TAT peptides, according to the modeling, use their N-termini for this purpose. To test the specificity of interactions between TAT compounds and the α face, competition experiments were performed. The 20S core was challenged with selected TAT compounds after treatment with Rpt peptides. Peptides of Rpt2 ([…]; SEQ ID NO: 10), Rpt3 ([…]; SEQ ID NO: 11), Rpt5 ([…]; SEQ ID NO: 12) and Rpt6 ([…]; SEQ ID NO: 13) subunits were selected, docking in α3/α4, α1/α2, α5/α6 and α2/α3 pockets, respectively. Tails of Rpt2, 3, and 5 display the canonical HbYX motif, whereas the LeuTrpLys C-terminus of Rpt6 may be considered “pseudo-HbYX”, with a bulky Trp replacing Tyr. Results of the competition experiments are presented as radar plots in FIG. 15. […] This pocket also emerged as the major binding site for (1) and (8). However, these compounds likely weakly competed with the Rpt2 tail for binding to the α3/α4 pocket as well. The α3/α4 pocket seemed to be favored by (6). […] These complex patterns point at the importance of allosteric effects between the α face ligands, the gate and the catalytic chamber.
Determination of Proteasome Activity. Human housekeeping core (20S) proteasome purified from erythrocytes was purchased from Boston Biochem, Inc. (Cambridge, Mass.) or from Enzo Life Sciences, Inc. (Farmingdale, N.Y.). Multiple batches of the proteasomes were used and performed reproducibly. The stock proteasome was diluted to 0.2 mg/mL working solution in “dilution buffer” (50 mM Tris/HCl, pH 8, 20% glycerol). The following model peptide substrates, releasing fluorescent 7-amino-4-methylcoumarin (AMC) reporter group after cleavage, were used: succinyl-LeuLeuValTyr-AMC (SEQ ID NO: 14) (for the ChT-L peptidase; SucLLVY-AMC; Bachem Bioscience Inc., Philadelphia, Pa.), butoxycarbonyl-LeuArgArg-AMC (T-L; Bachem Bioscience Inc., Philadelphia, Pa.) and carbobenzoxy-LeuLeuGlu-AMC (PGPH; Enzo Life Sciences Inc., Farmingdale, N.Y.). The substrates were used at concentration of 50 μM (ChT-L) or 100 μM (T-L, PGPH). Free AMC (Sigma-Aldrich, St. Louis, Mo.) was used as the standard. The C-terminal peptides derived from Rpt2, Rpt3, Rpt5 and Rpt6 were synthesized (standard solid-phase peptide chemistry) and purified to at least 98% purity by GenScript (Piscataway, N.J.). The TAT peptides, Rpt peptides (except Rpt6) and the peptide substrates were dissolved in anhydrous dimethylsulfoxide (DMSO; Sigma-Aldrich, St. Louis, Mo.) and such stock solutions were stored at −20° C. The total concentration of DMSO in final reaction mixtures never exceeded 3% (vol/vol). The Trp (tryptophan)-containing Rpt6 peptide was dissolved in ultrapure water and stored at −20° C., protected from light. The reaction was carried out in 96-well plates, in 100 μL of reaction mixture that consisted of 45 mM Tris/HCl, pH 8, 100 mM KCl, 1 mM EDTA (reaction buffer) and a fluorogenic peptide substrate, to which 200 ng (nearly […]) of proteasome were added. The addition of KCl/EDTA (ethylenediaminetetraacetic acid) to reaction buffer assured latency of the core proteasome. The proteasome was preincubated with a substrate for 10 min at room temperature, then 1 μL of DMSO or a desired concentration of a TAT peptide in 1 μL of DMSO were added. After mixing, the plate was transferred to a Fluoroskan Ascent plate reader (Thermo Fisher Scientific Inc., Waltham, Mass.) for 1 h (37° C.), with fluorescence readouts once per minute. To test the competition with Rpt derived peptides, the Rpt peptide (1 μM) was added before the TAT peptide to the reaction mixture. […]

20S proteasome = 20S proteasome (Homo sapiens, UniProt P25787+P60900); conditions: cited from earlier work

With `CC(C)(NC(=O)C(CCC(N)=O)NC(=O)C(CCCNC(=N)N)NC(=O)C(CCCNC(=N)N)NC(=O)C(CCCCN)NC(=O)C(CCCCN)NC(=O)C(CCCNC(=N)N)NC(=O)CN)C(=O)NC(=O)C(C)(C)C(=O)NC(CCC(N)=O)C(=O)NC(CCCNC(=N)N)C(=O)NC(CCCNC(=N)N)C(=O)NC(CCCCN)C(=O)NC(CCCCN)C(=O)NC(CCCNC(=N)N)C(=O)NCC(=O)O` (stereo not shown) [Tat5-8, 9 Aib, GRKKRRQ-AibG-QRRKKRG] the AC50 ([1]; 20S proteasome AC50, Table 1, ChT-L activity, Suc-LLVY-MCA, purified human housekeeping 20S) was 0.183 µM and the “activation of ChT-L activity of 20S proteasome (in words)” value ([1]; in vitro, latent human 20S) was “surprisingly excellent activator slightly less potent than Tat1-8,9Aib”.
For `CC(C)C[C@H](NC(=O)[C@H](Cc1ccccc1)NC(=O)c1cnccn1)B(O)O` [Bortezomib], the “effect on ChT-L activity of cell lysates (in words)” value [2] was “almost complete abrogation of ChT-L activity”.
In the case of `N=C(N)NCCC[C@H](NC(=O)CN)C(=O)N[C@@H](CCCCN)C(=O)N[C@@H](CCCCN)C(=O)N[C@@H](CCCNC(=N)N)C(=O)N[C@@H](CCCNC(=N)N)C(=O)N[C@@H](CCC(N)=O)C(=O)N[C@@H](CCCNC(=N)N)C(=O)N[C@@H](CCCNC(=N)N)C(=O)N[C@@H](CCCNC(=N)N)C(=O)N1CCC[C@H]1C(=O)N[C@@H](CO)C(=O)O` [(1), reference compound], the “proteasome ChT-L activity in lysates from treated cells vs control lysates” value [3] is reported as “lack of significant activation”, the “enhanced activation with Rpt tails” value ([4]; 1 μM Rpt peptide) is reported as “enhanced activation in the presence of one of Rpt tails, namely Rpt5 or Rpt6” and the “competition with Rpt tail peptides” value ([4]; 1 μM Rpt peptide added before the TAT peptide) is reported as “weakly negative score for the Rpt2 tail to the presumed major competitor Rpt3”. For the same molecule, the “degradation by 20S proteasome” value (20S proteasome) was “digested by 20S proteasome”.
